Reference: ChEMBL document CHEMBL4706724, “Novel Substituted Benzothiazole Compounds for Treating Huntington's Disease” (ACS Med Chem Lett, 2021)

Target: Huntingtin (Homo sapiens, UniProt P42858)
Assay: Inhibition of Huntingtin protein (unknown origin) incubated for overnight in presence of MW1/MAB2166 monoclonal antibody by ELISA-based MSD electrochemiluminescence assay

Sequence of Huntingtin (P42858 whole entry): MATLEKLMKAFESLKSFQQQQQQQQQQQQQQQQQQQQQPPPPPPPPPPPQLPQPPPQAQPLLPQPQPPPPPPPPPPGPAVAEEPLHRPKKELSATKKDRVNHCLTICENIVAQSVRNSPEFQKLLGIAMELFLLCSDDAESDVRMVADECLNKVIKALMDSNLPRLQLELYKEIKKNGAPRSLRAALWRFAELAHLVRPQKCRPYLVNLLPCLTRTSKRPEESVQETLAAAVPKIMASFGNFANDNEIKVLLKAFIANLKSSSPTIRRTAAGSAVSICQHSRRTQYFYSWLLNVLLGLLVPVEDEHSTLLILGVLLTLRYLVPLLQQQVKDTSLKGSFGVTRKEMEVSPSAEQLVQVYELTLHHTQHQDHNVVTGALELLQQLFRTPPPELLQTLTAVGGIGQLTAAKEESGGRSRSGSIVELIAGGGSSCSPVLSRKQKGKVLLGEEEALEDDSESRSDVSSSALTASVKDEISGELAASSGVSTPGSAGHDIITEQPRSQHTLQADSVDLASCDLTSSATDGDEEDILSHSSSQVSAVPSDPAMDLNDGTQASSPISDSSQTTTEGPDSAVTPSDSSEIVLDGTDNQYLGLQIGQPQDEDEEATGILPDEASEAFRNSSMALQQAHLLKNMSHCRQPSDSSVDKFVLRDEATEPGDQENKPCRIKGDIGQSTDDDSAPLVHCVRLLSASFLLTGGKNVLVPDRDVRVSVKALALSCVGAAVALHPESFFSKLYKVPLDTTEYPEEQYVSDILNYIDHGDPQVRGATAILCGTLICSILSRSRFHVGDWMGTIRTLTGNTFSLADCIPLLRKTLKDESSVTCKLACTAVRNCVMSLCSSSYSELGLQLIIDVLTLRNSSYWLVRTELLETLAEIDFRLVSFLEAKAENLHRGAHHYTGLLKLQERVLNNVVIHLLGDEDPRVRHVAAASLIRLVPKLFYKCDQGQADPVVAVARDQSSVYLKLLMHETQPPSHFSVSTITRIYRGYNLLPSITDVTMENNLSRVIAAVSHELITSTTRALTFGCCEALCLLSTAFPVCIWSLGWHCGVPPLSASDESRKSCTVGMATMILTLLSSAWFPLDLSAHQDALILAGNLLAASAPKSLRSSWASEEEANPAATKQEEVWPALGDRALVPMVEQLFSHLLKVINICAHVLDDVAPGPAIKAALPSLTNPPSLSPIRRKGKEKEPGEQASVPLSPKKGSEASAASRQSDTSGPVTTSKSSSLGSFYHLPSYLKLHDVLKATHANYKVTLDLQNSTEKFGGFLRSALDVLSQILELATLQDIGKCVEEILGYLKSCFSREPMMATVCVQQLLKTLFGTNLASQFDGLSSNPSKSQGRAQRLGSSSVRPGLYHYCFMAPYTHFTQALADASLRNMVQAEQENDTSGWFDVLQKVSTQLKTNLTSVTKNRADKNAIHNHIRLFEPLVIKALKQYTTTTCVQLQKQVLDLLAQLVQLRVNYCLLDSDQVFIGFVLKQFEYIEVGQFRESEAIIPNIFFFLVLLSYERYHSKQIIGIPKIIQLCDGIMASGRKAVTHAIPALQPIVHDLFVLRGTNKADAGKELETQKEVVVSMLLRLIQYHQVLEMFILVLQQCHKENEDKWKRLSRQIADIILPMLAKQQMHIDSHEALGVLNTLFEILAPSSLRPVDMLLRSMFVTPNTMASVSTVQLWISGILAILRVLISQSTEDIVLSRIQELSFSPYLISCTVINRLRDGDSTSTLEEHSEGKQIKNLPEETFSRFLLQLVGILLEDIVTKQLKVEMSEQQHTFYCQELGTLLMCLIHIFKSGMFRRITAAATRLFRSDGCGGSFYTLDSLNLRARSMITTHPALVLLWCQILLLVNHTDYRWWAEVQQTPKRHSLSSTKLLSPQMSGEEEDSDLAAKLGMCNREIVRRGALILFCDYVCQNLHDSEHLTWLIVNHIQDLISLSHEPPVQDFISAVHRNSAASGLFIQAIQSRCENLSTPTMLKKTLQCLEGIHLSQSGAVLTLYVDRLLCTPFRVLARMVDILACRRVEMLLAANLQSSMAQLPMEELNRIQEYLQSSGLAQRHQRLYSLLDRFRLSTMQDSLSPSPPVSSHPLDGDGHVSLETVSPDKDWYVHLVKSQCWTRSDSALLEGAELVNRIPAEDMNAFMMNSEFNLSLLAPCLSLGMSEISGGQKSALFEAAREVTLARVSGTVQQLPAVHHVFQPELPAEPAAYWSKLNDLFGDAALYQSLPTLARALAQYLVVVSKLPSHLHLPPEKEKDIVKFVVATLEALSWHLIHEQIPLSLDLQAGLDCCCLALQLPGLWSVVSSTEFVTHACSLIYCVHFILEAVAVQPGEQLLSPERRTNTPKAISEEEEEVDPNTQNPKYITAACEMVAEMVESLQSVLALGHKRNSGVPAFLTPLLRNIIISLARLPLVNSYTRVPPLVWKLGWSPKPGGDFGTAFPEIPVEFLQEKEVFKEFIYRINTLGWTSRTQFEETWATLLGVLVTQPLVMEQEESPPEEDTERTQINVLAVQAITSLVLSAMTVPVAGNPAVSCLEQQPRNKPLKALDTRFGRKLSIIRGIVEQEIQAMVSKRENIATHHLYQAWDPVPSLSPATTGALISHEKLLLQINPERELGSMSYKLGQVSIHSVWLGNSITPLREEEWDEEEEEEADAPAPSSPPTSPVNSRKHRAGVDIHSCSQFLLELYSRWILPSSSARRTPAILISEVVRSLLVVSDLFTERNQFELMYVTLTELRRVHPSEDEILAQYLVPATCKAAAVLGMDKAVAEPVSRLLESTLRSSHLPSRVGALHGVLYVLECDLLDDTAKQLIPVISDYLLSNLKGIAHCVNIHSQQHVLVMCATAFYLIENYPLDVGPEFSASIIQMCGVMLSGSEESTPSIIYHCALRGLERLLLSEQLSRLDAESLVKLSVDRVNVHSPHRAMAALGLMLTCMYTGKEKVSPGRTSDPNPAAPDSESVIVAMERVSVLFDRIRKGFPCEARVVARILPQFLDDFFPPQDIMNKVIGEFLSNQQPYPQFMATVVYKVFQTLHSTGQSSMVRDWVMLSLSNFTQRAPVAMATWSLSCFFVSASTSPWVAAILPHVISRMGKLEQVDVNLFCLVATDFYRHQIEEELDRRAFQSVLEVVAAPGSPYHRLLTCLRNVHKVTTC

Compound | IC50 [nM]
CN1CC2(C1)CN(c1nc3nnc(-c4ccc(-c5c[nH]nc5F)cc4O)cc3s1)C2 | ≤ 100
CN(c1nc2nnc(-c3ccc(-c4cn[nH]c4)cc3O)cc2s1)C1CCN(C2CC2)CC1 | ≤ 100
Oc1cc(-c2cn[nH]c2)ccc1-c1cc2sc(N3CCC34CCNCC4)nc2nn1 | ≤ 100
CN(c1nc2nnc(-c3ccc(-c4c[nH]nc4F)cc3O)cc2s1)C1CCNC1 (stereo unspecified) | ≤ 100

Further lines, results first:

IC50 [nM] | Compound
≤ 100 | Cc1cn2nc(-c3cc(F)c4nc(OC5CCN(C)CC5)sc4c3)cc(C)c2n1
≤ 100 | Cc1nc2ccc(-c3cc(F)c4nc(C5CCNCC5)sc4c3)cc2o1
